pIC50: −log10 of the molar value. Values after ≈ are worked out from the molar mass of the structure shown.
Legend:
Bacillus subtilis = assay: Antimicrobial activity against Bacillus subtilis CGMCC1.1162 after 24 hrs by modified microdilution method; type: functional; settings: CGMCC1.1162, 24 h
Staphylococcus aureus = assay: Antimicrobial activity against Staphylococcus aureus CGMCC1.1361 after 24 hrs by modified microdilution method; type: functional; settings: CGMCC1.1361, 24 h
Escherichia coli = assay: Antimicrobial activity against Escherichia coli CGMCC1.1571 after 24 hrs by modified microdilution method; type: functional; settings: CGMCC1.1571, 24 h
Pseudomonas fluorescens = assay: Antimicrobial activity against Pseudomonas fluorescens CGMCC1.1828 after 24 hrs by modified microdilution method; type: functional; settings: CGMCC1.1828, 24 h
Aspergillus niger = assay: Antimicrobial activity against Aspergillus niger CGMCC3.316 after 48 hrs by modified microdilution method; type: functional; settings: CGMCC3.316, 48 h
Candida albicans = assay: Antimicrobial activity against Candida albicans CGMCC2.2086 after 48 hrs by modified microdilution method; type: functional; settings: CGMCC2.2086, 48 h
Candida tropicalis = assay: Antimicrobial activity against Candida tropicalis CGMCC2.3967 after 48 hrs by modified microdilution method; type: functional; settings: CGMCC2.3967, 48 h
[1] = Cytotoxicity against human […] cells assessed as cell survival after 48 hrs by MTT assay; type: functional, cell-based
HepG2 = assay: Cytotoxicity against human HepG2 cells assessed as cell survival after 48 hrs by MTT assay; type: functional, cell-based; settings: HepG2, 48 h
[2] = Cytotoxicity against human LO2 cells assessed as cell survival after 48 hrs by MTT assay; type: cell-based; settings: L02, 48 h

C[C@H]1[C@H](C)CC[C@]2(C(=O)O)CC[C@]3(C)C(=CC[C@@H]4[C@@]5(C)Cc6c([nH]c7ccccc67)C(C)(C)[C@@H]5CC[C@]43C)[C@H]12 gave an MIC (Bacillus subtilis) of 15.6 µg/mL (≈ 29.6 µM), an MIC (Staphylococcus aureus) of 31.2 µg/mL (≈ 59.1 µM) and an MIC (Escherichia coli) of 15.6 µg/mL (≈ 29.6 µM). For the same molecule, the MIC (Pseudomonas fluorescens) was 15.6 µg/mL (≈ 29.6 µM), the MIC (Aspergillus niger) was over 100 µg/mL and the MIC (Candida albicans) was over 100 µg/mL. The MIC (Candida tropicalis) was over 100 µg/mL, the pIC50 [1] was 4.39 and the pIC50 (HepG2) was 4.59.
C[C@H]1[C@H](C)CC[C@]2(C(=O)O)CC[C@]3(C)C(=CC[C@@H]4[C@@]5(C)Cc6c([nH]c7ccc(F)cc67)C(C)(C)[C@@H]5CC[C@]43C)[C@H]12 showed an MIC (Bacillus subtilis) of 15.6 µg/mL (≈ 28.6 µM), an MIC (Staphylococcus aureus) of 15.6 µg/mL (≈ 28.6 µM) and an MIC (Escherichia coli) of 15.6 µg/mL (≈ 28.6 µM). It also gave an MIC (Pseudomonas fluorescens) of 31.2 µg/mL (≈ 57.2 µM), an MIC (Aspergillus niger) of 62.5 µg/mL (≈ 115 µM) and an MIC (Candida albicans) of 62.5 µg/mL (≈ 115 µM). The MIC (Candida tropicalis) was over 100 µg/mL, the pIC50 [1] was 4.79 and the pIC50 (HepG2) was 4.82.
In the case of Cc1ccc2[nH]c3c(c2c1)C[C@]1(C)[C@H]2CC=C4[C@@H]5[C@@H](C)[C@H](C)CC[C@]5(C(=O)NCCCN(C)C)CC[C@@]4(C)[C@]2(C)CC[C@H]1C3(C)C, the MIC (Bacillus subtilis) was 15.6 µg/mL (≈ 24.9 µM), the MIC (Staphylococcus aureus) was 31.2 µg/mL (≈ 49.8 µM) and the MIC (Escherichia coli) was 31.2 µg/mL (≈ 49.8 µM). For the same molecule, the MIC (Pseudomonas fluorescens) was 31.2 µg/mL (≈ 49.8 µM), the MIC (Aspergillus niger) was 62.5 µg/mL (≈ 99.8 µM) and the MIC (Candida albicans) was over 100 µg/mL. For the same molecule, the MIC (Candida tropicalis) was over 100 µg/mL, the pIC50 [1] was 5.97 and the pIC50 (HepG2) was 5.90. It also gave a pIC50 [2] of 5.24.
C[C@H]1[C@H](C)CC[C@]2(C(=O)O)CC[C@]3(C)C(=CC[C@@H]4[C@@]5(C)CCC(=O)C(C)(C)[C@@H]5CC[C@]43C)[C@H]12 [URSONIC ACID] gave an MIC (Bacillus subtilis) of 31.2 µg/mL (≈ 68.6 µM), an MIC (Staphylococcus aureus) of 62.5 µg/mL (≈ 137 µM) and an MIC (Escherichia coli) of 31.2 µg/mL (≈ 68.6 µM). For the same molecule, the MIC (Pseudomonas fluorescens) was 62.5 µg/mL (≈ 137 µM), the MIC (Aspergillus niger) was over 100 µg/mL and the MIC (Candida albicans) was over 100 µg/mL. It also gave an MIC (Candida tropicalis) of over 100 µg/mL, a pIC50 [1] of under 4.00 and a pIC50 (HepG2) of under 4.00.

Source: ChEMBL document CHEMBL3351749, “Synthesis, in vitro antimicrobial and cytotoxic activities of new carbazole derivatives of ursolic acid” (Bioorg Med Chem Lett, 2015)
